Experiments:
[1] = molecular target: T1, menin-MLL interaction (Homo sapiens (Human), UniProt O00255); test: Fluorescence polarization (FP) competition assay with fluorescein-labeled MLL peptide; format: binding; settings: for D in FP assay: Table 4, at 0.5 mM;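 on all read-outs here: Read-out is fluorescence anisotropy of fluorescein-labeled MLL peptide bound to menin, inhibitors displace the peptide and lower anisotropy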
[2] = system: Hoxa9 and Meis1 expression; test: qRT-PCR of MLL downstream targets in THP-1 cells
[3] = system: non-MLL leukemia cell lines (Kasumi-1, ME-1); test: MTT viability assay in non-MLL leukemia cell lines; format: cell-based, human; settings: Kasumi-1 (AML1-ETO), ME-1 (CBFβ-SMMHC)
[4] = system: human leukemia cell lines with MLL translocations (MV4;11, KOPN-8, THP-1, MonoMac6); test: MTT viability assay in MLL leukemia cell lines; format: cell-based; settings: in words
[5] = molecular target: T1, menin-MLL interaction; test: HTRF (TR-FRET) assay, His-tagged menin and biotinylated MLL peptide; format: binding; settings: Table 4
[6] = Table 1, NA = no activity, NS = no saturation on titration curve, read-out: IC50 in FP assay with FLSN-MLL
[7] = Table 1, NA = no activity, NS = no saturation on titration curve
[8] = Table 3, NA = no activity, read-out: IC50 in FP assay with FLSN-MLL
[9] = Table 4, NA = no activity, NS not defined in this table, read-out: IC50 in FP assay with FLSN-MLL
[10] = Table 2, FP assay, read-out: IC50

T1 sequence (O00255 whole entry): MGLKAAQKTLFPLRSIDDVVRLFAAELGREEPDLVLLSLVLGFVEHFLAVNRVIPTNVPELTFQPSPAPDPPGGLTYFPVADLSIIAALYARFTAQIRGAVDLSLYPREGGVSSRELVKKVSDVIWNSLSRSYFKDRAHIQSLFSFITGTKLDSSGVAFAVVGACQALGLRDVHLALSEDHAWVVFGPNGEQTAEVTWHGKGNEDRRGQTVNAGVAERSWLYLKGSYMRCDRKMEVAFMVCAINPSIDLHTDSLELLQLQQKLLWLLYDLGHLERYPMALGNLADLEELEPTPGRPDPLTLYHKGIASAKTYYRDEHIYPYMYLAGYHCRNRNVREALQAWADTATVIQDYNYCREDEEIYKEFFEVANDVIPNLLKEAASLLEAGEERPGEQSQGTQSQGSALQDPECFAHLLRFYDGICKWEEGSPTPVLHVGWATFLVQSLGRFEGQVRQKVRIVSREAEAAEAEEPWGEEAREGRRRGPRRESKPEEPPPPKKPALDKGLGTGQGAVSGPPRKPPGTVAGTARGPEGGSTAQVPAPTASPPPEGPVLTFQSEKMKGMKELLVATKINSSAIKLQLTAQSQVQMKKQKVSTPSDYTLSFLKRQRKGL

For c1csc(N2CCN(c3ncnc4sccc34)CC2)n1 [Compound 31], the IC50 [1, 6] was 29.5 µM.

CCOC(=O)c1sc2nc(CN3CCOCC3)nc(N3CCN(c4nccs4)CC3)c2c1C [Compound 12] was tested, and the “IC50 in FP assay with FLSN-MLL” value [1, 7] was “NA up to 100 μM”.

For CC(=O)N1c2ccccc2NC2=C(C(=O)CC(c3ccc(Cl)c(Cl)c3)C2)C1c1cccnc1 (stereo not drawn) [Compound 86], the “expression level of Hoxa9 and Meis1” value [2] was “Downregulation of Hoxa9 and Meis1 expression”, the IC50 ([1]; FP competition, read-out: IC50 for inhibition of the menin-MLL interaction) was 7.4 µM and the IC50 [1, 8] was 7.4 µM. For the same compound, the “effect on growth of non-MLL leukemia cell lines” value [3] was “no or very limited effect on cell growth” and the “growth inhibition of MLL leukemia cells” value [4] was “strongly inhibited growth”.

With COc1ccc(-c2csc(CC(N)=O)n2)cc1 [Compound 47] the IC50 [1, 9] was 67 µM, the “potency relative to the original hit (6G10)” value ([1]; inhibition of the menin-MLL interaction) was “about 4 fold” and the IC50 [5] was 33 µM.

Cc1ccccc1NC(=O)Cc1nc(-c2ccc(F)cc2)cs1 [Compound 50] was tested, and the IC50 [1, 9] was 122 µM.

In the case of CC1(C)CN=C(N2CCN(c3ncnc4sc(Br)cc34)CC2)S1 [Compound 72], the IC50 [1, 10] is reported as 4.8 µM.

For O=C1CC(c2ccc3c(c2)OCO3)CC2=C1C(c1cccnc1)Nc1ccccc1N2 (stereo not drawn) [Compound 36], the IC50 [1, 8] was 63 µM.

In the case of Cc1ccc(-c2csc(CC(N)=O)n2)cc1C [Compound 56], the “D in FP assay” value [1] is reported as 30%.

CCc1cc2c(N3CCN(c4ccccn4)CC3)ncnc2s1 [Compound 8] gave an IC50 [1, 6] of 60 µM.

COc1cc(C2Nc3ccccc3NC3=C2C(=O)CC(C)(C)C3)cc(OC)c1OC (stereo not drawn) [Compound 35] gave an IC50 [1, 8] of 35 µM.

Work on CCc1cc2c(NCC3CCN(Cc4ccc(F)cc4)CC3)ncnc2s1 [Compound 82] yielded an IC50 [1, 10] of 4.4 µM.

CCCC(=O)Nc1ccc(-c2nc(CC(N)=O)sc2C)cc1 [Compound 59] gave an IC50 [1, 9] of 830 µM.

In the case of O=C(Cc1nc(-c2ccccc2)cs1)Nc1ccccc1 [Compound 48], the “D in FP assay” value [1] is reported as 30%.

In the case of Cc1cc(C)c(-c2csc(CC(N)=O)n2)cc1C [Compound 57], the IC50 [1, 9] is reported as 1200 µM.

In the case of Cc1c(-c2ccccc2)sc2ncnc(N3CCN(c4nccs4)CC3)c12 [Compound 16], the IC50 [1, 6] is reported as 71 µM.

For COc1ccc(C2CC(=O)C3=C(C2)Nc2ccccc2NC3c2cccnc2)cc1OC (stereo not drawn) [Compound 37], the IC50 [1, 8] was 100 µM.

COc1ccc(CN2CCCN(c3ncnc4sc(C)c(C)c34)CC2)cc1 [Compound 73] gave an IC50 [1, 10] of 20 µM.

Work on NC(=O)Cc1nc(-c2cccc(Cl)c2)cs1 [Compound 54] yielded an IC50 [1, 9] of 137 µM.

With CN1CCN(c2ncnc3oc(-c4ccccc4)c(-c4ccccc4)c23)CC1 [Compound 11] the IC50 [1, 6] was 500 µM.

Work on CC1CCc2c(sc3ncnc(NC4CCN(Cc5ccccc5)CC4)c23)C1 (stereo not drawn) [Compound 79] yielded an IC50 [1, 10] of 20 µM.

With NC(=O)Cc1nc(-c2ccccc2)cs1 [Compound 46] the IC50 [1, 9] was 2000 µM.

CCc1cc2c(N3CCN(Cc4ccc(Cl)cc4)CC3)ncnc2s1 [Compound 60] was tested, and the IC50 [1, 10] was 30 µM.

Compound CCc1cc2c(N3CCN(c4ncccn4)CC3)ncnc2s1 [Compound 10] has an IC50 [1, 6] of 250 µM.

CCc1cc2c(N3CCCN(C4=NCC(C)(C)S4)CC3)ncnc2s1 [Compound 76] was tested, and the IC50 [1, 10] was 6.3 µM.

For c1cnc(N2CCN(c3ncnc4sccc34)CC2)nc1 [Compound 24], the “IC50 in FP assay with FLSN-MLL” value [1, 7] was “NA up to 1 mM”.

With CN1CCCN(c2ncnc3sccc23)CC1 [Compound 27] the IC50 [1, 6] was 350 µM.

For CCc1cc2c(NC3CCN(Cc4ccccc4)CC3)ncnc2s1 [Compound 80], the IC50 [1, 10] was 1.3 µM.

Cc1sc2ncnc(NC3CCN(Cc4ccccc4)CC3)c2c1C [Compound 77] was tested, and the IC50 [1, 10] was 8.7 µM.

COc1ccc(-c2csc(CC(N)=O)n2)cc1Br [Compound 58] showed an IC50 [1, 9] of 80 µM.

For O=C(Cc1nc(-c2ccc(Cl)cc2)cs1)NCc1ccccc1 [Compound 53], the IC50 [1, 9] was 1060 µM.

Compound O=C(Cc1nc(-c2ccc(F)cc2)cs1)N1CCOCC1 [Compound 52] has an IC50 [1, 9] of 107 µM.

CCc1cc2c(N3CCN(CC(=O)N4CCN(C)CC4)CC3)ncnc2s1 [Compound 69] showed an IC50 [1, 10] of 16 µM.

Compound CCc1cc2c(N3CCCN(CC(=O)N4CCCC4)CC3)ncnc2s1 [Compound 74] has an IC50 [1, 10] of 7 µM.
